Assay results published in patent publication US20220289727A1, “ENZYME INHIBITORS” (KALVISTA PHARMACEUTICALS LIMITED, priority 2019, published 2022).
Values belong to the compound of their own block, whether it stands above or below them.

Tests used:
[1] = target: T1, Human Factor XIIa (Homo sapiens, UniProt P00748); test: Determination of FXIIa inhibitory activity in vitro (fluorogenic substrate H-DPro-Phe-Arg-AFC); type: biochemical; conditions: 25° C., residual enzyme activity (initial rate)
T1 construct: Human Factor XIIa (Enzyme Research Laboratories) was incubated; purchased Enzyme Research Laboratories
T1 sequence (P00748 373-615 limits assumed): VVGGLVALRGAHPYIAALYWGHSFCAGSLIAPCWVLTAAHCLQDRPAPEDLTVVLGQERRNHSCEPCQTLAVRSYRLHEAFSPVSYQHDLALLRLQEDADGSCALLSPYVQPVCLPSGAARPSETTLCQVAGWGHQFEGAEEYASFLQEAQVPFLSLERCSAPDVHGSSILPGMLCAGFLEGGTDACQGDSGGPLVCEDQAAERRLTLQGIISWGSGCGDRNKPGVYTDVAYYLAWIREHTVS
T1 sequence (P00748 20-372 partner limits assumed): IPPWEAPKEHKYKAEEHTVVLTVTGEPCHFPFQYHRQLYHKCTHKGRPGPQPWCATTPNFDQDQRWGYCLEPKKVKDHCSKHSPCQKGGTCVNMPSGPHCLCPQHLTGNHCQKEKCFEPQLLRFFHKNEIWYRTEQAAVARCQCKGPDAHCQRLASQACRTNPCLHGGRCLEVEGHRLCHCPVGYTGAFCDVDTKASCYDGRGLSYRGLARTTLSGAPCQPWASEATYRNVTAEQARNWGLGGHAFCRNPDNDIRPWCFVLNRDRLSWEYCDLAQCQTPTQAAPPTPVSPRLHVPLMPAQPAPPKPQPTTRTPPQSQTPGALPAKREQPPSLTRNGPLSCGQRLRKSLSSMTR

[2] = target: T2, Human FXIa (Homo sapiens, UniProt P03951); test: Determination of FXIa inhibitory activity in vitro (fluorogenic substrate Z-Gly-Pro-Arg-AFC); type: biochemical; conditions: selectivity, 25° C., residual enzyme activity (initial rate)
T2 construct: Human FXIa (Enzyme Research Laboratories) was incubated; purchased Enzyme Research Laboratories
T2 sequence (P03951 388-625 limits assumed): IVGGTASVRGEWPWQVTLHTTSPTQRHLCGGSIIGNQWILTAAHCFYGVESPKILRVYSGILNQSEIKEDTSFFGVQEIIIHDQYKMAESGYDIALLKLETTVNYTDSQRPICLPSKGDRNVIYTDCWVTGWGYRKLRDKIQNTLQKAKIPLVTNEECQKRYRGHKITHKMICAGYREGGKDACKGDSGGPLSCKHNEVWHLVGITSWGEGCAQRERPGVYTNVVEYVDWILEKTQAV
T2 sequence (P03951 19-387 partner limits assumed): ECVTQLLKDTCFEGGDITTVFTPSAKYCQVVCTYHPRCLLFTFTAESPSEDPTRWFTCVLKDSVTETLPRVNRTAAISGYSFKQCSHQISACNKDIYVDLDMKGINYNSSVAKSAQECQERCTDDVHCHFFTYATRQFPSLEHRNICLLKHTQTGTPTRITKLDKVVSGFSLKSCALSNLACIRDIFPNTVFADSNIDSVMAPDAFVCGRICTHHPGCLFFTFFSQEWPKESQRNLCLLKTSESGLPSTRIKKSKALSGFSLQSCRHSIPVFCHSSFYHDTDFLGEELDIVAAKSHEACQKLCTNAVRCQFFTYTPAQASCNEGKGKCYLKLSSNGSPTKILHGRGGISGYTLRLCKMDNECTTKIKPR

Compound: Cc1csc(C(=O)NCc2ccc3c(N)nccc3c2)c1NC(=O)C1CCN(C)CC1 [Example 26.07]
IC50 [1]: 10 to 40 µM | IC50 [2]: > 40 µM

Compound: CC(C)(C)OC(=O)N1CCC(Cn2nc(Cl)cc2C(=O)NCc2ccc3c(N)nccc3c2)CC1 [Example 35.01]
IC50 [1]: 10 to 40 µM | IC50 [2]: > 40 µM

Compound: Cc1cc(C(=O)NCc2ccc3c(N)nccc3c2)n(CC2CCN(c3ccncc3)CC2)n1 [Example 35.06]
IC50 [1]: 10 to 40 µM | IC50 [2]: > 40 µM

Compound: CCn1c(C(=O)NCc2ccc3c(N)nccc3c2)cc(C)c1CN1CCN(c2ccncc2)CC1 [Example 51.02, N-[(1-Amino-6-isoquinolyl)methyl]-1-ethyl-4-methyl-5-[[4-(4-pyridyl)piperazin-1-yl]methyl]pyrrole-2-carboxamide]
IC50 [1]: 10 to 40 µM | IC50 [2]: 12.4 µM

Compound: CCc1cc(C(=O)NCc2ccc3c(N)nccc3c2)sc1CN1CCN(c2ccncc2)CC1 [Example 51.03]
IC50 [1]: 3 to 10 µM | IC50 [2]: 20.5 µM

Compound: Cc1cc(C(=O)NCc2ccc3c(N)nccc3c2)nn1CC1CCN(c2ccncc2)CC1 [Example 51.04]
IC50 [1]: 3 to 10 µM | IC50 [2]: > 40 µM

Compound: CN1CCC(CNc2nccc3c2C(=O)N(Cc2ccc4c(N)nccc4c2)C3)CC1 [Example 82.01, 2-((1-Aminoisoquinolin-6-yl)methyl)-4-(((1-methylpiperidin-4-yl)methyl)amino)-1,2-dihydro-3H-pyrrolo[3,4-c]pyridin-3-one]
IC50 [1]: 10 to 40 µM | IC50 [2]: > 40 µM

Results, then the compound that gave them:

IC50 [1]: 1 to 3 µM | IC50 [2]: > 40 µM
Compound: Cc1cc(NCC2CCN(C)CC2)c(C(=O)NCc2ccc3c(N)nccc3c2)s1 [Example 26.05, N-((1-Aminoisoquinolin-6-yl)methyl)-5-methyl-3-(((1-methylpiperidin-4-yl)methyl)amino) thiophene-2-carboxamide]

IC50 [1]: 1 to 3 µM | IC50 [2]: > 40 µM
Compound: Cc1c(Cl)sc(C(=O)NCc2ccc3c(N)nccc3c2)c1NCC1CCN(C)CC1 [Example 26.09]

IC50 [1]: 1 to 3 µM | IC50 [2]: > 40 µM
Compound: Cc1sc(C(=O)NCc2ccc3c(N)nccc3c2)c(NCC2CCN(C)CC2)c1Cl [Example 26.10, N-((1-Aminoisoquinolin-6-yl)methyl)-4-chloro-5-methyl-3-(((1-methylpiperidin-4-yl)methyl)amino) thiophene-2-carboxamide]

IC50 [1]: 3 to 10 µM | IC50 [2]: > 40 µM
Compound: Nc1nccc2cc(CNC(=O)c3cc(Cl)nn3CC3CCNCC3)ccc12 [Example 35.02]

IC50 [1]: 3 to 10 µM | IC50 [2]: > 40 µM
Compound: CCN1CCC(Cn2nc(Cl)cc2C(=O)NCc2ccc3c(N)nccc3c2)CC1 [Example 35.03]

IC50 [1]: < 1 µM | IC50 [2]: > 40 µM
Compound: CN1CCC(CCn2nc(Cl)cc2C(=O)NCc2ccc3c(N)nccc3c2)CC1 [Example 35.04, N-((1-Aminoisoquinolin-6-yl)methyl)-3-chloro-1-(2-(1-methylpiperidin-4-yl)ethyl)-1H-pyrazole-5-carboxamide]

IC50 [1]: 3 to 10 µM | IC50 [2]: 31.7 µM
Compound: Nc1nccc2cc(CNC(=O)c3cc(C4CC4)nn3CC3CCN(c4ccncc4)CC3)ccc12 [Example 35.05]

IC50 [1]: 1 to 3 µM | IC50 [2]: > 40 µM
Compound: CN1CCC(CCn2nccc2C(=O)NCc2ccc3c(N)nccc3c2)CC1 [Example 35.07]

IC50 [1]: < 1 µM | IC50 [2]: > 40 µM
Compound: CN1CCC(CCn2nc(C(=O)NCc3ccc4c(N)nccc4c3)cc2Cl)CC1 [Example 51.05, N-((1-Aminoisoquinolin-6-yl)methyl)-5-chloro-1-(2-(1-methylpiperidin-4-yl)ethyl)-1H-pyrazole-3-carboxamide]

IC50 [1]: 1 to 3 µM | IC50 [2]: > 40 µM
Compound: COCc1c(C(=O)NCc2cnc3[nH]cc(Cl)c3c2)cnn1Cc1cc2c(cc1F)CCN(C)C2 [Example 69.01, N-((3-Chloro-1H-pyrrolo[2,3-b]pyridin-5-yl)methyl)-1-((6-fluoro-2-methyl-1,2,3,4-tetrahydroisoquinolin-7-yl)methyl)-5-(methoxymethyl)-1H-pyrazole-4-carboxamide]
